Assays:
Format in all cases: cell-based
Conditions in all cases: plant extract 29 μg/ml
Aspergillus niger = assay: Growth inhibition zone on Sabouraud dextrose agar
Protocol: (§1) In the preferred embodiment, grinded garlic, ginger, papaya seed, clover bud, tamarind and the coconut oil components are extracted by 95% ethanol and kept in dark four days at room temperature. The extracted homogenous texture is filtered through Whatman filter paper no. 1 by using Thermo Scientific Vacuum USA. The filtered extract pH is adjusted to 5.6. A drop of Lavender is added to the final concentration and the extract is refrigerated in sealed, amber-colored bottles at 4° C. after the concentration is determined. […], Penicillium notatum, and Aspergillus niger used as fungal species. Known isolates of Escherichia coli, Bacillus serous and Staphylococcus aureus used as bacterial species. Sabouraud dextrose agar (SDA) medium and Nutrient agar plates (NAP) used to confirm in vitro inhibition of the fungus and bacteria in 24, 48 and 72 hours at room temperature and 37° C. respectively. The antimicrobial activity of plant-extract specified by the formation of an inhibition zone is measured by using Vernier calipers. Also, 28 individuals evaluated after using the mixed plant-extract within two weeks trial controlling fungal and bacterial infections of the skin. […] Staphylococcus aureus, Bacillus cereus and Escherichia coli grown on nutrient agar (NA). Aspergillus niger, Penicillium notatum and […] tested fungal species grown on Sabouraud dextrose agar (SDA). […] The SDA and NA plates were filled with 20 ml of media and solidified in 24 hours at 37° C. incubator before inoculation of the of the microorganisms and the products to be tested.

Penicillium notatum = assay: Growth inhibition zone on Sabouraud dextrose agar
Protocol: as §1

Serratia marcescens = assay: Growth inhibition zone on Sabouraud dextrose agar
Protocol: as §1

Bacillus cereus = assay: Growth inhibition zone on nutrient agar
Protocol: as §1

Staphylococcus aureus = assay: Growth inhibition zone on nutrient agar
Protocol: as §1

Escherichia coli = assay: Growth inhibition zone on nutrient agar
Protocol: as §1

Molecule	Growth inhibition by mm, A. niger (Aspergillus niger) [mm]	Growth inhibition by mm, P. notatum (Penicillium notatum) [mm]	Growth inhibition by mm, S. marcescens (Serratia marcescens) [mm]	Growth inhibition by mm, B. cereus (Bacillus cereus) [mm]	Growth inhibition by mm, S. Aureus (Staphylococcus aureus) [mm]	Growth inhibition by mm, E. coli (Escherichia coli) [mm]
Clc1ccccc1C(c1ccccc1)(c1ccccc1)n1ccnc1 [Clotrimazole 1%, clotrimazole]	1.8	2.1	1.8	1	1.2	2.2
CN(C)[C@@H]1C(O)=C(C(N)=O)C(=O)[C@@]2(O)C(O)=C3C(=O)c4c(O)cccc4[C@@](C)(O)[C@H]3C[C@@H]12 [Tetracycline]	0.8	0.7	0.7	1.3	1.3	1.2
C=CCCCCCCCCC(=O)O [Undecycleric add 25%, undecylenic acid]	1.9	1.6	1.7	1.1	1.1	1.2
Penicillin	1.7	1.4	1.6	1.9	1.9	2.5
